The test system of this assay is B6C3F1 mice, intracerebral ependymoblastoma, median survival T/C. The assay can be described thus: NCI In Vivo Anticancer Drug Screen. Data for tumor model Ependymoblastoma (intracerebral) in B6C3F1 mice. To be noted: endpoint: median survival time, higher = longer survival. The procedure:
The antitumor activity of compounds was measured in mice bearing transplantable tumors. Survival or tumor size were measured and the results are expressed as the measurement made in the treated group (T) divided by the measurement made in the vehicle treated control group (C). The tumor model used in this assay is Ependymoblastoma (intracerebral) in B6C3F1 mice

The mark [1] stands for this setting: dose: 100.0 mg/kg/injection, schedule: Q01DX005 (ip), vehicle: saline with Tween-80.
[2] abbreviates: dose: 50.0 mg/kg/injection, schedule: Q01DX005 (ip), vehicle: suspension in saline.
[3] abbreviates: dose: 100.0 mg/kg/injection, schedule: Q01DX005 (ip), vehicle: suspension in saline.
The mark [4] stands for this setting: dose: 200.0 mg/kg/injection, schedule: Q01DX005 (ip), vehicle: suspension in saline.

Where “and” joins values, the source holds several entries; their conditions need not be identical. Equal values may be shown once. Toxic doses and inconclusive results are not listed.

In the case of `CN(C)c1nc(N(C)C)nc(N(C)C)n1`, the T/C reads like this: (dose: 50.0 mg/kg/injection, schedule: Q01DX005 (ip), vehicle: saline) 94 % of control; under setting [1], 100 % of control; (dose: 100.0 mg/kg/injection, schedule: Q01DX005 (ip), vehicle: saline) 94 % of control; (dose: 200.0 mg/kg/injection, schedule: Q01DX001 (ip), vehicle: saline with Tween-80) 92 % of control; (dose: 200.0 mg/kg/injection, schedule: Q01DX001 (ip), vehicle: saline) 96 % of control and 99 % of control and 104 % of control; (dose: 200.0 mg/kg/injection, schedule: Q01DX005 (ip), vehicle: saline with Tween-80) 99 % of control. For the same molecule, the T/C is 101 % of control (dose: 200.0 mg/kg/injection, schedule: Q01DX005 (ip), vehicle: saline); 100 % of control (dose: 400.0 mg/kg/injection, schedule: Q01DX001 (ip), vehicle: saline with Tween-80); 97 % of control and 107 % of control and 89 % of control (dose: 400.0 mg/kg/injection, schedule: Q01DX001 (ip), vehicle: saline); 87 % of control (dose: 400.0 mg/kg/injection, schedule: Q01DX005 (ip), vehicle: saline with Tween-80); 100 % of control (dose: 800.0 mg/kg/injection, schedule: Q01DX001 (ip), vehicle: saline with Tween-80); 92 % of control (2×) and 96 % of control (dose: 800.0 mg/kg/injection, schedule: Q01DX001 (ip), vehicle: saline). In addition, under “dose: 1600.0 mg/kg/injection, schedule: Q01DX001 (ip), vehicle: saline”, the T/C was 106 % of control.

On to `CSc1nc(N)nc2c1ncn2C1OC(CO)C(O)C1O` (centres undefined), for which the T/C is 108 % of control under setting [2]; 109 % of control under setting [3]; 100 % of control under setting [4]; 96 % of control (dose: 400.0 mg/kg/injection, schedule: Q01DX005 (ip), vehicle: suspension in saline).

As to `CC1(C)OC2C(COC(=O)c3ccc([N+](=O)[O-])cc3)OC(NC(=O)N(CCCl)N=O)C2O1` (centres undefined), the T/C is, setting by setting: (dose: 5.0 mg/kg/injection, schedule: Q01DX009 (ip), vehicle: saline) 100 % of control; (dose: 10.0 mg/kg/injection, schedule: Q01DX009 (ip), vehicle: saline) 207 % of control; (dose: 12.5 mg/kg/injection, schedule: Q01DX009 (ip), vehicle: saline with Tween-80) 195 % of control; (dose: 25.0 mg/kg/injection, schedule: Q01DX009 (ip), vehicle: saline with Tween-80) 248 % of control.

For `CCOC(=O)CC(SP(=S)(OC)OC)C(=O)OCC` (centres undefined), the T/C reads like this: (dose: 25.0 mg/kg/injection, schedule: Q01DX005 (ip), vehicle: suspension in saline) 100 % of control; under setting [2], 124 % of control; under setting [3], 101 % of control; under setting [4], 105 % of control.

For the molecule `C[C@]12C=CC(=O)C=C1CC[C@@H]1[C@@H]2CC[C@]2(C)OC(=O)CC[C@@H]12`, the T/C runs as follows: (dose: 8.0 mg/kg/injection, schedule: Q01DX005 (ip), vehicle: Klucel (hydroxypropylcellulose) (HPC)) 98 % of control and 100 % of control; (dose: 8.0 mg/kg/injection, schedule: Q01DX005 (ip), vehicle: saline with Tween-80) 100 % of control and 113 % of control; (dose: 16.0 mg/kg/injection, schedule: Q01DX005 (ip), vehicle: Klucel (hydroxypropylcellulose) (HPC)) 101 % of control and 106 % of control; (dose: 16.0 mg/kg/injection, schedule: Q01DX005 (ip), vehicle: saline with Tween-80) 97 % of control and 110 % of control; (dose: 32.0 mg/kg/injection, schedule: Q01DX005 (ip), vehicle: Klucel (hydroxypropylcellulose) (HPC)) 94 % of control and 95 % of control; (dose: 32.0 mg/kg/injection, schedule: Q01DX005 (ip), vehicle: saline with Tween-80) 97 % of control and 105 % of control. Further, the T/C was 98 % of control and 101 % of control (dose: 64.0 mg/kg/injection, schedule: Q01DX005 (ip), vehicle: Klucel (hydroxypropylcellulose) (HPC)); 97 % of control and 105 % of control (dose: 64.0 mg/kg/injection, schedule: Q01DX005 (ip), vehicle: saline with Tween-80); 96 % of control and 86 % of control (dose: 128.0 mg/kg/injection, schedule: Q01DX005 (ip), vehicle: Klucel (hydroxypropylcellulose) (HPC)); 96 % of control and 108 % of control (dose: 128.0 mg/kg/injection, schedule: Q01DX005 (ip), vehicle: saline with Tween-80); 90 % of control (dose: 256.0 mg/kg/injection, schedule: Q01DX005 (ip), vehicle: Klucel (hydroxypropylcellulose) (HPC)); 105 % of control (dose: 256.0 mg/kg/injection, schedule: Q01DX005 (ip), vehicle: saline with Tween-80).

For `C1CN(P2(N3CC3)=NP(N3CC3)(N3CC3)=NP(N3CC3)(N3CC3)=N2)CCO1` (centres undefined), the T/C (dose: 20.0 mg/kg/injection, schedule: Q01DX001 (ip), vehicle: saline) was 101 % of control; the T/C (dose: 40.0 mg/kg/injection, schedule: Q01DX001 (ip), vehicle: saline) is 102 % of control; the T/C (dose: 80.0 mg/kg/injection, schedule: Q01DX001 (ip), vehicle: saline) is 96 % of control.

On to `Cc1cnc(/C=N\NC(N)=S)c2cccc(N)c12`, for which the T/C runs as follows: (dose: 12.5 mg/kg/injection, schedule: Q01DX005 (ip), vehicle: saline with Tween-80) 100 % of control; (dose: 25.0 mg/kg/injection, schedule: Q01DX005 (ip), vehicle: saline with Tween-80) 103 % of control; (dose: 50.0 mg/kg/injection, schedule: Q01DX005 (ip), vehicle: saline with Tween-80) 104 % of control; under setting [1], 102 % of control.
